From US8088822B2, “Use of fenretinide or bioactive derivatives thereof and pharmaceutical compositions comprising the same” (priority 2008, dated 2012)

Key:
[1] = system: normal hematopoietic stem cells (HSC); experiment: Apoptosis/toxicity in normal hematopoietic stem cells; assay type: cell-based, human; details: representative specimen
Source text: Fresh bone marrow (BM) cells were obtained from 38 patients with CML and 5 non-leukemic donors, 25 AML, 17 ALL, and 8 normal specimens with informed consent according to the Declaration of Helsinki. Approval was obtained from Institutional Review Board at the School of Medicine in Shanghai Jiao Tong University. BM mononuclear cells were isolated by Ficoll density gradient centrifugation (Shanghai Second Reagent Factory, Shanghai, China). CD34^+ Cell were selected using EasySep® Human CD34 Positive Selection kit (Stem Cell Technologies, Vancouver, BC, Canada) according to the manufacturer's instructions. The purity of CD34 cells ranged between 92 and 98% in all samples detennined by flow cytometry. The CD34^+ cells were cultured in a serum-free medium (StemPro 34; Gibco BRL, Gaithersburg, Md.) supplemented with growth factors (PeproTech, London, United Kingdom) (20). The growth factors consisted of GM-CSF (200 pg/mL), G-CSF (1 ng/mL); SCF (200 pg/mL); LIF (50 pg/mL), MIP-1α (200 pg/mL) and IL-6 (1 ng/mL).
Primitive AML and CML subpopulations (CD34^+ cells) were identified using CD34-PE in combination with CD38-APC, and followed by double-labeling with 7AAD and Annexin V antibodies for apoptosis assessment. […] Subsequently, the samples were incubated at room temperature for 15 minutes and analyzed by flow cytometry. […]

[2] = system: K562, HL60 and NB4 leukemia cell lines; experiment: Apoptosis versus intracellular ROS level in leukemia cell lines; assay type: cell-based; details: series of concentrations
Protocol: 2×10^5 cultured cells were used for evaluating apoptosis using an ApoAlert Annexin V-FITC Apoptosis Kit (BD Biosciences). Cells were washed once by PBS, resuspended in 200 μl Annexin-V binding buffer, and then stained with Annexin V-FITC 5 μl, PI 10 μl for 15 min at room temperature in the dark. Cells were subsequently analyzed by flow cytometry.
The intracellular generation of reactive oxygen species (ROS) was measured using of the oxidation-sensitive fluorescent dye 2,7-dichlorofluorescin diacetate (DCFH-DA) (Molecular Probes). After 3 h exposure of fenretinide, 2×10^5 cells were harvested and washed once with PBS, then loaded with 1 ml PBS containing 10 μM of DCFH-DA. The cells were then incubated at 37° C. for 30 min and the fluorescence intensity was measured at 530 nm.
Fenretinide induces ROS-dependent apoptosis is the common feature in a variety of tumors (Sun et al., 1999). Here, we extensively explored the relationship between intracellular ROS levels and apoptosis outcomes induced by fenretinide in a panel of leukemia cell lines, including K562, HL60 and NB4. The intracellular ROS levels in leukemic cells were evaluated by DCFH-DA staining, and apoptosis of leukemic cells induced by fenretinide treatment with a series of concentrations was examined through annexin-V FITC and 7AAD double staining.

NRF2 and HSF1 = experiment: Western blot of NRF2 and HSF1 in nuclear extracts of NB4 cells; assay type: cell-based; details: 1 μM fenretinide, within 6 hours
Source text: Transcriptome analysis of fenretinide-induced apoptosis in leukemia cell lines facilitated in-depth mining of biological information relevant to oxidative stress-mediated apoptosis, including the prediction of upstream transcription factors potentially involved in gene regulation. Of several dozens of transcriptional regulators predicted, stress-responsive transcription factors NRF2 and HSF1 are of particular interest for understanding how oxidative signaling is translated into downstream effects. NRF2 is known as a key regulator of intracellular redox balance, activating genes encoding antioxidative proteins under oxidative stress (Jaiswal, 2004; D'Autreaux and Toledano, 2007). Although HSF1 is commonly recognized as a heat-shock motivated transcription factor (Hayashida et al., 2006), it can also be activated by oxidative stress under certain circumstances (Ahn and Thiele, 2003). We therefore further investigated the temporal abundance and spatial localization of there two stress-responsive transcription factors during fenretinide-induced apoptosis in NB4 cells. […] The induction of NRF2 was extended beyond the 24 hour whereas HSF1 induction was terminated at this time point. […] Also, nuclear gathering of NRF2 was sustained beyond the 24 hour treatment whereas that of HSF1 was terminated. […]

CC1=C(/C=C/C(C)=C/C=C/C(C)=C/C(=O)Nc2ccc(O)cc2)C(C)(C)CCC1 [fenretinide, N-(4-hydroxyphenyl)retinamide]
change in the cell proportion of normal HSC [1]: 5.36%
apoptosis in normal HSC ([1]; fenretinide alone or co-treatment with imatinib): 19.08%
susceptibility to fenretinide-induced apoptosis versus level of intracellular ROS [2]: positively correlated
protein levels of NRF2 and HSF1 in nuclear extracts (NRF2 and HSF1): markedly elevated
